# Reference: patent publication US4990337A (priority 1988, dated 1991)
# Test: Test Example 2: emulsifiability of intermediate molecular weight fatty acid glycerides in water, test tube shaking
# Assay type: physicochemical
# Conditions: 1 ml glyceride and 9 ml water, on standing
# Description: 1 ml of an intermediate molecular weight fatty acid glyceride and 9 ml of water were placed in a test tube, and the test tube was shaken lightly to examine the emulsifiability of the intermediate molecular weight fatty acid glyceride.
# The intermediate molecular weight fatty acid glycerides examined in this Example were caprylic acid mono-, di- and tri- glycerides and caproic acid diglyceride.
row,stability of the emulsion (separation between oil and water),Compound
1,tended to separate into oil and water,CCCCCCCC(=O)OCC(COC(=O)CCCCCCC)OC(=O)CCCCCCC [Caprylic acid triglyceride]
2,the emulsion was very stable,Caprylic acid monoglyceride

# Same assay, conditions: 1 ml glyceride and 9 ml water, test tube shaken
row,Compound,Emulsifiability
1,CCCCCCCC(=O)OCC(COC(=O)CCCCCCC)OC(=O)CCCCCCC [Caprylic acid triglyceride],emulsified only after vigorous shaking by hand
2,Caprylic acid monoglyceride,emulsified in a manner very close to self-emulsification
3,Caproic acid diglyceride,intermediate emulsifiability
4,caprylic acid diglyceride,intermediate emulsifiability
